Measured values taken from patent US12404275B2, “Pyrazolopyrazine derived compounds, pharmaceutical composition and use thereof” (PrimeGene (Beijing) Co., Ltd., priority 2019, dated 2025).

Assays:
Format in all cases: biochemical
[1] = target: JAK2 (Homo sapiens, UniProt O60674); experiment: Mobility shift assay, inhibitory activity on JAK2 kinase; details: JAK2 0.125 nM, ATP 1 mM, 3 μM Kinase Substrate 30
Protocol: (§1) Inhibitory Activities of the Compounds on JAK1, JAK2, JAK3 and Tyk2 (IC50)
(§2) The inhibitory activity of compounds on JAK family kinase was analyzed with Mobility shift assay. The screening platform is MSA based microfluidic chip technology, which applies the basic concept of capillary electrophoresis to microfluidic environment. The substrate used in the experiment is a poly-peptide labeled with fluorescent. Under the catalysis of kinase in the reaction system, the substrate is transformed into a product, with the charge changed accordingly. MSA technology could detect the substrate and the product with different charge separately.
(§3) A compound (powder) was dissolved in 100% DMSO to prepare a 10 mM storage solution. […] Detection in duplicate. Baricitinib (Selleckchem, Cat. S2851) was used as positive control. The serially diluted compound was mixed with JAK1/JAK2/JAK3/Tyk2 kinase (Cama, Cat. 08-144/08-045/08-046/08-147) with final concentration of 5 nM/0.125 nM/0.5 nM/2.5 nM in a Optiplate-384F plate and incubated at room temperature for 10 minutes. After that, ATP with final concentration of 1 mM and 3 μM Kinase Substrate 30 (GL Biochem, Cat. 117885) were added and mixed well. The reaction was carried out at room temperature for 20 min. Stop test solution was added to stop the reaction and the conversion rate was read by Caliper EZ Reader II.
(§4) Conversion %_sample: the conversion rate reading of the sample;
(§5) Conversion %_min: mean value of negative control, representing the conversion rate reading without kinase activity;
(§6) Coversion %_max: mean value of positive control, representing the conversion rate reading without compound inhibition.

[2] = system: Tyk2; experiment: Mobility shift assay, inhibitory activity on Tyk2 kinase; details: ratio of JAK2 IC50 to TyK2 IC50
Protocol: as §1, §2, §3, §4, §5, §6

[3] = target: Tyk2 (Homo sapiens, UniProt P29597); experiment: as above; details: mobility shift assay; Tyk2 2.5 nM; ATP 1 mM; 3 μM Kinase Substrate 30
Protocol: as §1, §2, §3, §4, §5, §6

Row | SMILES | IC50 [1] [µM] | Selectivity of JAK2/TyK2 [2] | IC50 [3] [µM]
1 | CC(C)S(=O)(=O)N1CC(CC#N)(n2cc(-c3nc(-c4cnn(C)c4)cn4nccc34)c(N)n2)C1 [Example 3, 2-(3-(3-amino-4-(6-(1-methyl-1H-pyrazol-4-yl)pyrazolo[1,5-a]pyrazin-4-yl)-1H-pyrazol-1-yl)-1-(isopropylsulfonyl)azetidin-3-yl)acetonitrile] | 0.077 | 36.6 | 0.0021
2 | Cn1cc(-c2cn3nccc3c(-c3cn([C@]4(CC#N)C[C@H](C#N)C4)c4ncncc34)n2)cn1 [Example 49, (1s,3s)-3-(cyanomethyl)-3-(5-(6-(1-methyl-1H-pyrazol-4-yl)pyrazolo[1,5-a]pyrazin-4-yl)-7H-pyrrolo[2,3-d]pyrimidin-7-yl)cyclobutane-1-carbonitrile] |  |  | 0.118
3 | Cn1cc(-c2cn3nccc3c(-c3cn([C@]4(CC#N)C[C@H](C#N)C4)c4ccncc34)n2)cn1 [Example 47, (1s,3s)-3-(cyanomethyl)-3-(3-(6-(1-methyl-1H-pyrazol-4-yl)pyrazolo[1,5-a]pyrazin-4-yl)-1H-pyrrolo[3,2-c]pyridin-1-yl)cyclobutane-1-carbonitrile] |  |  | 0.186
4 | CC(C)S(=O)(=O)N1CC(CC#N)(n2cc(-c3nc(-c4cnn(C)c4)cn4ncc(C#N)c34)c(N)n2)C1 [Example 4, 4-(3-amino-1-(3-(cyanomethyl)-1-(isopropylsulfonyl)azetidin-3-yl)-1H-pyrazol-4-yl)-6-(1-methyl-1H-pyrazol-4-yl)pyrazolo[1,5-a]pyrazine-3-carbonitrile] |  |  | 1.76
5 | CCS(=O)(=O)N1CC(CC#N)(n2cc(-c3nc(-c4cnn(C)c4)cn4nccc34)c(N)n2)C1 [Example 2, 2-(3-(3-amino-4-(6-(1-methyl-TH-pyrazol-4-yl)pyrazolo[1,5-a]pyrazin-4-yl)-1H-pyrazol-1-yl)-1-(ethylsulfonyl)azetidin-3-yl)acetonitrile] | 0.064 | 168 | 0.00038
6 | Cn1cc(-c2cn3nccc3c(-c3cn([C@]4(CC#N)C[C@H](C#N)C4)c4ncncc34)n2)cn1 [Example 50, (1r,3r)-3-(cyanomethyl)-3-(5-(6-(1-methyl-1H-pyrazol-4-yl)pyrazolo[1,5-a]pyrazin-4-yl)-7H-pyrrolo[2,3-d]pyrimidin-7-yl)cyclobutane-1-carbonitrile] | 0.01 | 24.4 | 0.00041
7 | Cn1cc(-c2cn3nccc3c(-c3cn([C@]4(CC#N)C[C@@H](C#N)C4)c4ccncc34)n2)cn1 [Example 48, (1r,3r)-3-(cyanomethyl)-3-(3-(6-(1-methyl-1H-pyrazol-4-yl)pyrazolo[1,5-a]pyrazin-4-yl)-1H-pyrrolo[3,2-c]pyridin-1-yl)cyclobutane-1-carbonitrile] | 0.0081 | 22.5 | 0.00036

Now from value to compound:

Row | IC50 [1] [µM] | Selectivity of JAK2/TyK2 [2] | IC50 [3] [µM] | SMILES
8 | 0.088 | 210 | 0.00042 | Cn1cc(-c2cn3nccc3c(-c3cn(C4(CC#N)CN(CC#N)C4)nc3N)n2)cn1 [Example 1, 2,2′-(3-(3-amino-4-(6-(1-methyl-1H-pyrazol-4-yl)pyrazolo[1,5-a]pyrazine-4-yl)-1H-pyrazol-1-yl)azetidine-1,3-diyl)diacetonitrile]
9 | 0.014 |  | 0.00017 | Cn1cc(-c2cn3nccc3c(-c3cn([C@]4(CC#N)C[C@@H](C#N)C4)nc3N)n2)cn1 [Example 9, (1r,3r)-3-(3-amino-4-(6-(1-methyl-1H-pyrazol-4-yl)pyrazolo[1,5-a]pyrazin-4-yl)-1H-pyrazol-1-yl)-3-(cyanomethyl)cyclobutyl-1-carbonitrile]
10 |  |  | 0.375 | Cn1cc(-c2cc(-c3cn([C@]4(CC#N)C[C@@H](C#N)C4)nc3N)c3ccnn3c2)cn1 [Example 42, (1r,3r)-3-(3-amino-4-(6-(1-methyl-1H-pyrazol-4-yl)pyrazolo[1,5-a]pyridin-4-yl)-1H-pyrazol-1-yl)-3-(cyanomethyl)cyclobutane-1-carbonitrile]
11 | 0.0067 | 20 | 0.00033 | CNc1nn([C@]2(CC#N)C[C@@H](C#N)C2)cc1-c1nc(-c2cnn(C)c2)cn2nccc12 [Example 38, (1r,3r)-3-(cyanomethyl)-3-(4-(6-(1-methyl-1H-pyrazol-4-yl)pyrazolo[1,5-a]pyrazin-4-yl)-3-(methylamino)-1H-pyrazol-1-yl)cyclobutane-1-carbonitrile]
12 |  |  | 0.043 | Cn1cc(-c2cc(-c3cn([C@]4(CC#N)C[C@H](C#N)C4)nc3N)c3ccnn3c2)cn1 [Example 43, (is, 3s)-3-(3-amino-4-(6-(1-methyl-TH-pyrazol-4-yl)pyrazolo[1,5-a]pyridin-4-yl)-1H-pyrazol-1-yl)-3-(cyanomethyl)cyclobutane-1-carbonitrile]
13 | 0.2 | 54 | 0.0037 | CN(C)c1nn([C@]2(CC#N)C[C@@H](C#N)C2)cc1-c1nc(-c2cnn(C)c2)cn2nccc12 [Example 39, (1r,3r)-3-(cyanomethyl)-3-(3-(dimethylamino)-4-(6-(1-methyl-1H-pyrazol-4-yl)pyrazolo[1,5-a]pyrazin-4-yl)-1H-pyrazol-1-yl)cyclobutane-1-carbonitrile]
14 |  |  | 0.037 | Cn1cc(-c2cn3ncnc3c(-c3cn([C@]4(CC#N)C[C@@H](C#N)C4)nc3N)n2)cn1 [Example 41, (1r,3r)-3-(3-amino-4-(6-(1-methyl-1H-pyrazol-4-yl)-[1,2,4]triazolo[1,5-a)pyrazin-8-yl)-1H-pyrazol-1-yl)-3-(cyanomethyl)cyclobutane-1-carbonitrile]
15 |  |  | 0.139 | CC(=O)Nc1nn([C@]2(CC#N)C[C@@H](C#N)C2)cc1-c1nc(-c2cnn(C)c2)cn2nccc12 [Example 40, N-(1-((1r,3r)-3-cyano-1-(cyanomethyl)cyclobutyl)-4-(6-(1-methyl-1H-pyrazol-4-yl)pyrazolo[1,5-a]pyrazin-4-yl)-1H-pyrazol-3-yl)acetamide]
16 | 0.00025 |  | 0.00013 | Cn1cc(-c2cn3nccc3c(-c3cn([C@]4(CC#N)C[C@H](C#N)C4)nc3N)n2)cn1 [Example 10, (1s,3s)-3-(3-amino-4-(6-(1-methyl-1H-pyrazol-4-yl)pyrazolo[1,5-a]pyrazin-4-yl)-1H-pyrazol-1-yl)-3-(cyanomethyl)cyclobutyl-1-carbonitrile]
